What was measured:
Format in all cases: functional
SNB-75 = assay: Cytotoxicity against human SNB75 cells assessed as cell growth at 10^-6 M after 48 hrs by SRB assay relative to control; settings: SNB-75, 48 h, read-out: Activity
SR [1] = assay: Cytotoxicity against human SR cells assessed as cell growth at 10^-4 M after 48 hrs by SRB assay relative to control; settings: read-out: Activity
M14 [2] = assay: Cytotoxicity against human M14 cells assessed as cell growth at 10^-7 M after 48 hrs by SRB assay relative to control; settings: M14, 48 h, read-out: Activity
NCI-H322M = assay: Cytotoxicity against human NCI-H322M cells after 48 hrs by SRB assay
[3] = Cytotoxicity against human Hs 578T cells assessed as cell growth at 10^-4 M after 48 hrs by SRB assay relative to control; settings: read-out: Activity
DU-145 = assay: Cytotoxicity against human DU145 cells after 48 hrs by SRB assay; settings: DU-145, 48 h
NCI-H522 [4] = assay: Cytotoxicity against human NCI-H522 cells assessed as cell growth at 10^-7 M after 48 hrs by SRB assay relative to control; settings: NCI-H522, 48 h, read-out: Activity
HL-60(TB) [5] = assay: Cytotoxicity against human HL-60(TB) cells assessed as cell growth at 10^-8 M after 48 hrs by SRB assay relative to control; settings: HL-60, 48 h, read-out: Activity
SF-268 [6] = assay: Cytotoxicity against human SF268 cells assessed as cell growth at 10^-8 M after 48 hrs by SRB assay relative to control; settings: SF-268, 48 h, read-out: Activity
T47D = assay: Cytotoxicity against human T47D cells after 48 hrs by SRB assay
SW-620 = assay: Cytotoxicity against human SW620 cells assessed as cell growth at 10^-6 M after 48 hrs by SRB assay relative to control; settings: SW-620, 48 h, read-out: Activity
SF-539 = assay: Cytotoxicity against human SF539 cells assessed as cell growth at 10^-6 M after 48 hrs by SRB assay relative to control; settings: SF-539, 48 h, read-out: Activity
HL-60(TB) [7] = assay: Cytotoxicity against human HL-60(TB) cells assessed as cell growth at 10^-7 M after 48 hrs by SRB assay relative to control; settings: HL-60, 48 h, read-out: Activity
SR [8] = assay: Cytotoxicity against human SR cells assessed as cell growth at 10^-7 M after 48 hrs by SRB assay relative to control; settings: read-out: Activity
[9] = Cytotoxicity against human OVCAR4 cells assessed as cell growth at 10^-7 M after 48 hrs by SRB assay relative to control; settings: OVCAR-4, 48 h, read-out: Activity
RPMI-8226 = assay: Cytotoxicity against human RPMI8226 cells after 48 hrs by SRB assay; settings: RPMI-8226, 48 h; for CC50: read-out: LC50 (the source's name)
RXF 393 = assay: Cytotoxicity against human RXF393 cells after 48 hrs by SRB assay; settings: RXF 393, 48 h
LOX IMVI = assay: Cytotoxicity against human LOXIMVI cells assessed as cell growth at 10^-4 M after 48 hrs by SRB assay relative to control; settings: read-out: Activity
COLO 205 = assay: Cytotoxicity against human COLO205 cells assessed as cell growth at 10^-8 M after 48 hrs by SRB assay relative to control; settings: COLO 205, 48 h, read-out: Activity
KM12 = assay: Cytotoxicity against human KM12 cells assessed as cell growth at 10^-4 M after 48 hrs by SRB assay relative to control; settings: KM12, 48 h, read-out: Activity
[10] = Cytotoxicity against human PC3 cells assessed as cell growth at 10^-4 M after 48 hrs by SRB assay relative to control; settings: PC-3, 48 h, read-out: Activity
CAKI-1 [11] = assay: Cytotoxicity against human Caki1 cells assessed as cell growth at 10^-8 M after 48 hrs by SRB assay relative to control; settings: CAKI-1, 48 h, read-out: Activity
M14 [12] = assay: Cytotoxicity against human M14 cells assessed as cell growth at 10^-6 M after 48 hrs by SRB assay relative to control; settings: M14, 48 h, read-out: Activity
CAKI-1 [13] = assay: Cytotoxicity against human Caki1 cells after 48 hrs by SRB assay; settings: CAKI-1, 48 h; for CC50: read-out: LC50 (the source's name)
SNB-19 = assay: Cytotoxicity against human SNB19 cells assessed as cell growth at 10^-4 M after 48 hrs by SRB assay relative to control; settings: SNB-19, 48 h, read-out: Activity
Malme-3M = assay: Cytotoxicity against human MALME-3M cells after 48 hrs by SRB assay; settings: for CC50: read-out: LC50 (the source's name)
SF-268 [14] = assay: Cytotoxicity against human SF268 cells after 48 hrs by SRB assay; settings: SF-268, 48 h; for CC50: read-out: LC50 (the source's name)
[15] = Cytotoxicity against human OVCAR5 cells assessed as cell growth at 10^-7 M after 48 hrs by SRB assay relative to control; settings: OVCAR-5, 48 h, read-out: Activity
NCI-H522 [16] = assay: Cytotoxicity against human NCI-H522 cells after 48 hrs by SRB assay; settings: NCI-H522, 48 h; for CC50: read-out: LC50 (the source's name)
SK-MEL-2 = assay: Cytotoxicity against human SK-MEL-2 cells assessed as cell growth at 10^-4 M after 48 hrs by SRB assay relative to control; settings: SK-MEL-2, 48 h, read-out: Activity
U-251 = assay: Cytotoxicity against human U251 cells assessed as cell growth at 10^-6 M after 48 hrs by SRB assay relative to control; settings: U-251, 48 h, read-out: Activity
A549 = assay: Cytotoxicity against human A549 cells assessed as cell growth at 10^-4 M after 48 hrs by SRB assay relative to control; settings: A549, 48 h, read-out: Activity
BT-549 = assay: Cytotoxicity against human BT549 cells after 48 hrs by SRB assay; settings: BT-549, 48 h; for CC50: read-out: LC50 (the source's name)
[17] = Cytotoxicity against human HCT116 cells after 48 hrs by SRB assay; settings: HCT-116, 48 h; for CC50: read-out: LC50 (the source's name)
CCRF-CEM = assay: Cytotoxicity against human CCRF-CEM cells after 48 hrs by SRB assay; settings: read-out: LC50 (the source's name)
[18] = Cytotoxicity against human UACC257 cells assessed as cell growth at 10^-6 M after 48 hrs by SRB assay relative to control; settings: UACC-257, 48 h, read-out: Activity

CC(C)=CCC[C@H](C)c1ccc(C)c2c1OCN(CC1CCNCC1)C2
growth at 1 µM (SNB-75): 85%
growth at 100 µM (SR [1]): -42%
growth at 0.1 µM (M14 [2]): 99%
GI50 (NCI-H322M): 19.4 µM
LC50 (NCI-H322M): 77.8 µM
TGI (NCI-H322M): 38.8 µM
growth at 100 µM [3]: -75%
GI50 (DU-145): 16.4 µM
LC50 (DU-145): 63.2 µM
TGI (DU-145): 32.2 µM
growth at 0.1 µM (NCI-H522 [4]): 88%
growth at 0.01 µM (HL-60(TB) [5]): 96%
growth at 0.01 µM (SF-268 [6]): 102%
GI50 (T47D): 15.2 µM
LC50 (concentration killing 50% of cells) (T47D): 72.8 µM
TGI (T47D): 33.2 µM
growth at 1 µM (SW-620): 103%
growth at 1 µM (SF-539): 104%
growth at 0.1 µM (HL-60(TB) [7]): 91%
growth at 0.1 µM (SR [8]): 98%
growth at 0.1 µM [9]: 102%
GI50 (RPMI-8226): 7.25 µM
TGI (RPMI-8226): 32.6 µM
CC50 (RPMI-8226): > 100 µM
GI50 (RXF 393): 9.2 µM
LC50 (concentration killing 50% of cells) (RXF 393): 88.3 µM
TGI (RXF 393): 21.7 µM
growth at 100 µM (LOX IMVI): -80%
growth at 0.01 µM (COLO 205): 109%
growth at 100 µM (KM12): -90%
growth at 100 µM [10]: -46%
growth at 0.01 µM (CAKI-1 [11]): 101%
growth at 1 µM (M14 [12]): 114%
GI50 (CAKI-1 [13]): 17.7 µM
TGI (CAKI-1 [13]): 36.8 µM
CC50 (CAKI-1 [13]): 76.3 µM
growth at 100 µM (SNB-19): -82%
GI50 (Malme-3M): 17.7 µM
TGI (Malme-3M): 35.3 µM
CC50 (Malme-3M): 70.2 µM
GI50 (SF-268 [14]): 16.6 µM
TGI (SF-268 [14]): 33.3 µM
CC50 (SF-268 [14]): 66.7 µM
growth at 0.1 µM [15]: 87%
GI50 (NCI-H522 [16]): 13.5 µM
TGI (NCI-H522 [16]): 28.6 µM
CC50 (NCI-H522 [16]): 60.4 µM
growth at 100 µM (SK-MEL-2): -78%
growth at 1 µM (U-251): 100%
growth at 100 µM (A549): -84%
GI50 (BT-549): 16.9 µM
TGI (BT-549): 41.6 µM
CC50 (BT-549): > 100 µM
GI50 [17]: 7.17 µM
TGI [17]: 21.7 µM
CC50 [17]: 56.3 µM

CC(C)=CCC[C@H](C)c1ccc(C)c(CNCC2CCNCC2)c1O
growth at 1 µM (SNB-75): 89%
growth at 100 µM (SR [1]): -50%
GI50 (NCI-H322M): 7.02 µM
LC50 (NCI-H322M): > 25 µM
TGI (NCI-H322M): > 25 µM
growth at 100 µM [3]: 23%
CC50 (CCRF-CEM): 1.64 µM
GI50 (DU-145): 16.4 µM
LC50 (DU-145): > 25 µM
TGI (DU-145): > 25 µM
growth at 0.1 µM (NCI-H522 [4]): 96%
growth at 0.01 µM (HL-60(TB) [5]): 86%
growth at 0.01 µM (SF-268 [6]): 97%
GI50 (T47D): 4.33 µM
LC50 (concentration killing 50% of cells) (T47D): 18.1 µM
TGI (T47D): 8.86 µM
growth at 1 µM (SW-620): 99%
growth at 1 µM (SF-539): 92%
growth at 0.1 µM (HL-60(TB) [7]): 101%
growth at 0.1 µM (SR [8]): 84%
growth at 0.1 µM [9]: 103%
GI50 (RXF 393): 3.7 µM
LC50 (concentration killing 50% of cells) (RXF 393): > 25 µM
TGI (RXF 393): 13.4 µM
growth at 100 µM (LOX IMVI): -79%
growth at 0.01 µM (COLO 205): 106%
growth at 100 µM (KM12): -77%
growth at 100 µM [10]: 6%
growth at 0.01 µM (CAKI-1 [11]): 92%
growth at 1 µM [18]: 80%
GI50 (CAKI-1 [13]): 4.62 µM
TGI (CAKI-1 [13]): 13.4 µM
CC50 (CAKI-1 [13]): > 25 µM
growth at 100 µM (SNB-19): 21%
GI50 (Malme-3M): 4.5 µM
TGI (Malme-3M): 9.68 µM
CC50 (Malme-3M): 20.8 µM
GI50 (SF-268 [14]): 7.12 µM
TGI (SF-268 [14]): > 25 µM
CC50 (SF-268 [14]): > 25 µM
growth at 0.1 µM [15]: 96%
GI50 (NCI-H522 [16]): 8.22 µM
TGI (NCI-H522 [16]): > 25 µM
CC50 (NCI-H522 [16]): > 25 µM
growth at 100 µM (SK-MEL-2): -70%
growth at 1 µM (U-251): 94%
GI50 (BT-549): 9.72 µM
TGI (BT-549): > 25 µM
CC50 (BT-549): > 25 µM
GI50 [17]: 5.08 µM
TGI [17]: 12.4 µM
CC50 [17]: > 25 µM

COc1ccc(CCN2COc3c([C@@H](C)CCC=C(C)C)ccc(C)c3C2)cc1OC
growth at 1 µM (SNB-75): 86%
growth at 0.1 µM (M14 [2]): 97%
GI50 (NCI-H322M): 3.03 µM
LC50 (NCI-H322M): 55.7 µM
TGI (NCI-H322M): 11.6 µM
growth at 100 µM [3]: -66%
CC50 (CCRF-CEM): > 100 µM
growth at 0.01 µM (HL-60(TB) [5]): 98%
growth at 0.01 µM (SF-268 [6]): 85%
GI50 (T47D): 1.78 µM
LC50 (concentration killing 50% of cells) (T47D): 8.12 µM
TGI (T47D): 3.8 µM
growth at 1 µM (SW-620): 93%
growth at 1 µM (SF-539): 96%
growth at 0.1 µM (HL-60(TB) [7]): 99%
growth at 0.1 µM [9]: 90%
GI50 (RPMI-8226): 2.09 µM
TGI (RPMI-8226): 7.67 µM
CC50 (RPMI-8226): > 100 µM
GI50 (RXF 393): 1.73 µM
LC50 (concentration killing 50% of cells) (RXF 393): 18.2 µM
TGI (RXF 393): 4.85 µM
growth at 100 µM (LOX IMVI): -93%
growth at 0.01 µM (COLO 205): 105%
growth at 100 µM (KM12): -75%
growth at 100 µM [10]: -61%
growth at 0.01 µM (CAKI-1 [11]): 94%
growth at 1 µM (M14 [12]): 92%
growth at 1 µM [18]: 91%
GI50 (CAKI-1 [13]): 2.73 µM
TGI (CAKI-1 [13]): 12.1 µM
CC50 (CAKI-1 [13]): 41.3 µM
growth at 100 µM (SNB-19): -33%
GI50 (Malme-3M): 1.53 µM
TGI (Malme-3M): 3.18 µM
CC50 (Malme-3M): 6.61 µM
GI50 (SF-268 [14]): 1.45 µM
TGI (SF-268 [14]): 4.34 µM
CC50 (SF-268 [14]): 17.3 µM
growth at 0.1 µM [15]: 98%
growth at 100 µM (SK-MEL-2): -95%
growth at 1 µM (U-251): 88%
growth at 100 µM (A549): -52%
GI50 [17]: 2.17 µM
TGI [17]: 4.94 µM
CC50 [17]: 13.3 µM
